Patent US20220257557A1, “PHARMACEUTICAL COMPOSITION FOR PREVENTING OR TREATING NEUROLOGICAL DISEASES” (GLACEUM INC., priority 2019, published 2022)

What was measured:
[1] = system: BV2 cells; assay: Transcription of NF-κB protein (p65, p50) into nucleus after LPS (Western blot); assay type: cell-based; settings: 3 h pretreatment (Table 3 amounts), LPS 1 μg/ml 1 h
Description: (§1) RAW264.7 cells or BV2 cells (5×10^5 cells/well) were dispensed in DMEM containing 10% heat-inactivated FBS, 10 IU/mL penicillin G, 100 μg/mL streptomycin and 2 mM L-glutamine and cultured in a 5% CO2 incubator at a temperature of 37° C.
(§2) The compound of Formula III-3, III-4, V-3, III-1, IV-1, V-1, IV-2, V-2 or II-2 was added to the RAW264.7 cells or BV2 cells, and the toxicities of the compounds were determined by MTT assay.
(§3) The pretreated cells of Experimental Example 4-1 were treated with 1 μg/ml of LPS for 1 hour, and then the level of transcription of NF-κB protein into the nucleus of each of p65 and p50 was analyzed through Western blot.

[2] = system: RAW264.7 cells; assay: as above; assay type: cell-based; settings: 3 h pretreatment (Table 3 amounts), LPS 1 μg/ml 1 h
Description: RAW264.7 cells or BV2 cells (5×10^5 cells/well) were dispensed in DMEM containing 10% heat-inactivated FBS, 10 IU/mL penicillin G, 100 μg/mL streptomycin and 2 mM L-glutamine and cultured in a 5% CO2 incubator at a temperature of 37° C. […]
as §3

[3] = system: BV2 cells; assay: IL-1β, IL-6 and TNF-α mRNA expression after LPS (RT-PCR); assay type: cell-based; settings: 3 h pretreatment (Table 3 amounts), LPS 1 μg/ml 6 h
Description: as §1, §2
(§4) The pretreated cells of Experimental Example 4-1 were treated with 1 μg/ml of LPS for 6 hours, and then the mRNA expression level of the cytokine IL-1β, IL-6 or TNF-α produced in the inflammatory response was analyzed using RT-PCR.

[4] = system: RAW264.7 cells; assay: as above; assay type: cell-based; settings: 3 h pretreatment (Table 3 amounts), LPS 1 μg/ml 6 h
Description: as §1, §2, §4

[5] = system: BV2 cells; assay: iNOS and COX-2 expression after LPS (Western blot); assay type: cell-based; settings: 3 h pretreatment (Table 3 amounts), LPS 1 μg/ml 24 h
Description: as §1, §2
(§5) The pretreated cells of Experimental Example 4-1 were treated with 1 μg/ml of LPS for 24 hours, and then the expression levels of iNOS and COX-2 were observed through Western blot, and the production of NO and PGE2 was measured.

[6] = system: RAW264.7 cells; assay: iNOS and COX-2 expression after LPS (Western blot); assay type: cell-based; settings: 3 h pretreatment (Table 3 amounts), LPS 1 μg/ml 24 h
Description: as §1, §2, §5

[7] = target: T1, rePON1 (PON1, paraoxonase 1) (Homo sapiens, UniProt P27169); assay: Prevention of inhibition of PON1 activity by oxidized linolenic acid (TBBL substrate); assay type: biochemical; settings: for extent to which inhibition of rePON1 activity was prevented, compared with glabridin: compound 30 μM vs glabridin 30 μM; for extent to which inhibition of rePON1 activity was prevented, compared with glabridin / inhibition of rePON1 activity by oxidized linolenic acid: result in words; for inhibition of rePON1 activity by oxidized linolenic acid: compound 30 μM
T1 construct: purchased Thermo Corp. RP-75678
T1 sequence (P27169 whole entry): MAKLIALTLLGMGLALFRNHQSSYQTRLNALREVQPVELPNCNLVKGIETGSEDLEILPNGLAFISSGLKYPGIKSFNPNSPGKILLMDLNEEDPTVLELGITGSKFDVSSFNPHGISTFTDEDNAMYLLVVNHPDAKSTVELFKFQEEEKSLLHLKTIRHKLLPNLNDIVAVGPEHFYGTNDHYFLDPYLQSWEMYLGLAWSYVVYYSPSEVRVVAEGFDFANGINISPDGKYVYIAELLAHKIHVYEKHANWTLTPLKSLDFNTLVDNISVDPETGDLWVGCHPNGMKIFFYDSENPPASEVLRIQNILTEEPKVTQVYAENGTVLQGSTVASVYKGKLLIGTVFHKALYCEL
Description: Based on the fact that the activity of PON1 is inhibited when PON1 is treated with oxidized linolenic acid, an experiment was conducted to confirm the prevention of inhibition of PON1 activity. The activity of PON1 was measured using TBBL (5-thiobutyl butyrolactones) as a substrate.
Specifically, after 9.6 μl of 50 mM Tris-HCl containing 1 mM CaCl2 was added to each of […] Eppendorf tubes, 0.2 μl of each of the compounds of Formulas III-1, IV-1, V-1, IV-2, V-2, II-1, IV-3, V-3, III-2, IV-4, V-4, II-2 and III-3 and glabridine was added to each tube so that the concentration thereof was 30 μM. 0.2 μl of rePON1 (RP-75678, Thermo Corp.) was added to each of the 12 tubes and mixed. Thereafter, each of the mixtures was allowed to react at room temperature for 30 minutes, and 0.5 μl of 1 mM oxidized linolenic acid (OX-LA) dissolved in DMSO was added thereto in order to inhibit rePON1 activity, followed by reaction at room temperature for 2 hours, thus preparing solutions (I).
25 μl of 0.5 mM DTNB dissolved in 50 mM Tris-HCl containing 1 mM CaCl2 was dispensed into each well of a 384-well plate, and then 10 μl of each of the solutions (I) was dispensed into each well, and 20 μl of 2 mM TBBL dissolved in 50 mM Tris-HCl containing 1 mM CaCl2 was added to each well, thus preparing samples. The absorbance of each of the samples at 420 nm was measured using a spectrometer (SpectraMax M2) at 37° C. every 2 minutes for 1 hour.
In addition, a negative control was prepared in the same manner as the above-described method, except that, for the preparation of a solution, 0.2 μl of DMSO was added instead of the compounds of Formulas III-1, IV-1, V-1, IV-2, V-2, II-1, IV-3, V-3, III-2, IV-4, V-4, II-2 and III-3 and glabridin. Furthermore, a normal control was prepared in the same manner as the above-described method, except that, for the preparation of a solution, 0.2 μl of DMSO was added instead of the above-described compounds and glabridin and that oxidized linolenic acid was not added. The absorbance of each of the negative control and the normal control was measured.
Using SoftMax Pro software, the activity of PON1 was calculated from the absorbance using the following Equation 1, and the results are shown in Table 1 below.
Activity=(absorbancesample−absorbanceblank)/(absorbancePON1−absorbanceblank)*100 [Equation 1]

[8] = system: BV2 cells; assay: NO and PGE2 production after LPS; assay type: cell-based; settings: 3 h pretreatment (Table 3 amounts), LPS 1 μg/ml 24 h
Description: as §1, §2, §5

[9] = system: RAW264.7 cells; assay: NO and PGE2 production after LPS; assay type: cell-based; settings: 3 h pretreatment (Table 3 amounts), LPS 1 μg/ml 24 h
Description: as §1, §2, §5

SMILES	level of transcription of NF-κB protein into the nucleus, p50 [1]	level of transcription of NF-κB protein into the nucleus, p65 [1]	level of transcription of NF-κB protein into the nucleus, p50 [2]	level of transcription of NF-κB protein into the nucleus, p65 [2]	mRNA expression level of IL-1β [3]	mRNA expression level of IL-6 [3]	mRNA expression level of TNF-α [3]	mRNA expression level of IL-1β [4]	mRNA expression level of IL-6 [4]	mRNA expression level of TNF-α [4]	expression level of COX-2 [5]	expression level of iNOS [5]	expression level of COX-2 [6]	expression level of iNOS [6]	extent to which inhibition of rePON1 activity was prevented, compared with glabridin [7]	inhibition of rePON1 activity by oxidized linolenic acid [7]	production of NO [8]	production of PGE2 [8]	production of NO [9]	production of PGE2 [9]	also measured
CCc1ccc(C2COc3c(ccc4c3CCC(C)(C)O4)C2)c(O)c1 (centres unmarked) [Formula III-3, 2-(8,8-dimethyl-2,3,4,8,9,10-hexahydropyrano[2,3-f]chromen-3-yl)-5-ethylphenol]	concentration-dependently decreased	concentration-dependently decreased	concentration-dependently decreased	concentration-dependently decreased	concentration-dependently decreased	concentration-dependently decreased	concentration-dependently decreased	concentration-dependently decreased	concentration-dependently decreased	concentration-dependently decreased	concentration-dependently decreased	concentration-dependently decreased	concentration-dependently decreased	concentration-dependently decreased	greater	prevented	concentration-dependently decreased	concentration-dependently decreased	concentration-dependently decreased	concentration-dependently decreased	–
CCCc1ccc([C@H]2COc3c(ccc4c3CCC(C)(C)O4)C2)c(O)c1 [Formula V-3, (S)-2-(8,8-dimethyl-2,3,4,8,9,10-hexahydropyrano[2,3-f]chromen-3-yl)-5-propylphenol]	concentration-dependently decreased	concentration-dependently decreased	concentration-dependently decreased	concentration-dependently decreased	concentration-dependently decreased	concentration-dependently decreased	concentration-dependently decreased	concentration-dependently decreased	concentration-dependently decreased	concentration-dependently decreased	concentration-dependently decreased	concentration-dependently decreased	concentration-dependently decreased	concentration-dependently decreased	greater	prevented	concentration-dependently decreased	concentration-dependently decreased	concentration-dependently decreased	concentration-dependently decreased	activity at 30 µM ([7]; 30 μM compound with rePON1 30 min, then oxidized linolenic acid 2 h, TBBL substrate, normal control 100, negative control 73.64): 95.1%
